In the supplement of paper PMC10307832:

Key:
Experiment in all cases: relative viability (nuclei count vs DMSO), 5 days (fraction); higher = more cells survive
Dasatinib + Luminespib = compound: Cc1nc(Nc2ncc(C(=O)Nc3c(C)cccc3Cl)s2)cc(N2CCN(CCO)CC2)n1 [Dasatinib] + CCNC(=O)c1noc(-c2cc(C(C)C)c(O)cc2O)c1-c1ccc(CN2CCOCC2)cc1 [Luminespib] (partner 0.01 µM)
Outline: (§1)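 Values are medians from duplicate plates. Each reflects relative viability, defined as the nuclei count of treated wells over that of vehicle wells. Lung cancer cell lines in 1536-well plates were pin-tool dosed one day after seeding with one drug alone or with a fixed anchor-drug dose plus five library-drug doses (not always all listed) in √10 steps, then fixed, stained and imaged at 4× after 5 days.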

ALW-II-49-7 + Alpelisib = compound: Cc1ccc(C(=O)Nc2cccc(C(F)(F)F)c2)cc1Nc1cncc(C(N)=O)c1 [ALW-II-49-7] + Cc1nc(NC(=O)N2CCC[C@H]2C(N)=O)sc1-c1ccnc(C(C)(C)C(F)(F)F)c1 [Alpelisib] (partner 2 µM)
Outline: as §1

XMD13-2 + Bortezomib = compound: C1CC1C(=O)NC2=NNC3=C2C=CC(=C3)C4=CC(=CC=C4)C(=O)NC5CC5 [XMD13-2] + CC(C)C[C@H](NC(=O)[C@H](Cc1ccccc1)NC(=O)c1cnccn1)B(O)O [Bortezomib] (partner 0.002 µM)
Outline: as §1

XMD13-2 + Pemetrexed = compound: C1CC1C(=O)NC2=NNC3=C2C=CC(=C3)C4=CC(=CC=C4)C(=O)NC5CC5 [XMD13-2] + Nc1nc2[nH]cc(CCc3ccc(C(=O)N[C@@H](CCC(=O)O)C(=O)O)cc3)c2c(=O)[nH]1 [Pemetrexed] (partner 0.2 µM)
Outline: as §1

| Cell Line | relative viability (Dasatinib + Luminespib; first compound 0.005 µM) | relative viability (Dasatinib + Luminespib; first compound 0.01581 µM) | relative viability (Dasatinib + Luminespib; first compound 0.05 µM) | relative viability (Dasatinib + Luminespib; first compound 0.1581 µM) | relative viability (Dasatinib + Luminespib; first compound 0.5 µM) | relative viability (ALW-II-49-7 + Alpelisib; first compound 0.08 µM) | relative viability (ALW-II-49-7 + Alpelisib; first compound 0.253 µM) | relative viability (ALW-II-49-7 + Alpelisib; first compound 0.8 µM) | relative viability (ALW-II-49-7 + Alpelisib; first compound 2.53 µM) | relative viability (ALW-II-49-7 + Alpelisib; first compound 8 µM) | relative viability (XMD13-2 + Bortezomib; first compound 0.05 µM) | relative viability (XMD13-2 + Bortezomib; first compound 0.1581 µM) | relative viability (XMD13-2 + Bortezomib; first compound 0.5 µM) | relative viability (XMD13-2 + Bortezomib; first compound 1.581 µM) | relative viability (XMD13-2 + Bortezomib; first compound 5 µM) | relative viability (XMD13-2 + Pemetrexed; first compound 0.05 µM) | relative viability (XMD13-2 + Pemetrexed; first compound 0.1581 µM) | relative viability (XMD13-2 + Pemetrexed; first compound 0.5 µM) | relative viability (XMD13-2 + Pemetrexed; first compound 1.581 µM) | relative viability (XMD13-2 + Pemetrexed; first compound 5 µM) |
| --- | --- | --- | --- | --- | --- | --- | --- | --- | --- | --- | --- | --- | --- | --- | --- | --- | --- | --- | --- | --- |
| NCI-H2023 | 0.646 | 0.669 | 0.599 | 0.518 | 0.507 | 0.66 | 0.575 | 0.657 | 0.641 | 0.677 | 1.16 | 0.928 | 1.06 | 0.986 | 0.983 | 0.261 | 0.206 | 0.195 | 0.242 | 0.246 |
| EBC-1 |  |  |  |  |  | 0.791 | 0.783 | 0.731 | 0.644 | 0.522 | 0.61 | 0.523 | 0.552 | 0.531 | 0.299 |  |  |  |  |  |
| NCI-H1666 | 0.992 | 1.05 | 1.06 | 0.88 | 0.459 | 1.05 | 1.07 | 0.853 | 0.951 | 0.868 | 0.893 | 0.838 | 1.02 | 0.763 | 0.468 | 0.863 | 0.919 | 0.875 | 0.884 | 0.946 |
| NCI-H1975 | 0.177 | 0.212 | 0.155 | 0.178 | 0.139 | 0.534 | 0.62 | 0.641 | 0.662 | 0.485 | 0.45 | 0.384 | 0.345 | 0.392 | 0.445 | 0.295 | 0.286 | 0.295 | 0.316 | 0.305 |
| NCI-H2170 | 0.497 | 0.482 | 0.597 | 0.315 | 0.273 | 0.723 | 0.762 | 0.751 | 0.867 | 0.793 |  |  |  |  |  | 0.284 | 0.294 | 0.323 | 0.267 | 0.285 |
| NCI-H1355 | 0.766 | 0.561 | 0.569 | 0.458 | 0.435 | 0.696 | 0.867 | 0.832 | 0.679 | 0.645 | 1.3 | 1.32 | 1.18 | 1.19 | 1.28 | 1.04 | 1.05 | 1.06 | 1.06 | 1.1 |
| NCI-H1648 |  |  |  |  |  |  |  |  |  |  |  |  |  |  |  | 0.702 |  | 0.726 | 0.705 | 0.719 |
| A549 |  |  |  |  |  | 0.82 | 0.756 | 0.728 | 0.802 | 0.712 |  |  |  |  |  |  |  |  |  |  |
| SK-MES-1 | 0.844 | 0.656 | 0.353 | 0.128 | 0.154 | 0.852 | 0.802 | 0.891 | 0.779 | 0.753 |  |  |  |  |  | 1.01 | 0.894 | 0.911 | 0.909 | 0.864 |
| EKVX | 0.797 | 0.665 | 0.808 | 0.637 | 0.207 | 0.929 | 0.78 | 0.868 | 0.685 | 0.802 | 1.23 | 1.03 | 1.06 | 1.1 | 1.09 | 0.457 | 0.324 | 0.432 |  | 0.428 |
| RERF-LC-KJ | 1.3 | 1.05 | 1.06 | 0.982 | 0.993 | 0.785 | 0.567 | 0.754 | 0.745 | 0.882 | 1.08 | 1.05 | 1.2 | 0.97 | 1.14 | 0.478 | 0.425 | 0.476 | 0.385 | 0.463 |
| NCI-H1755 | 0.522 | 0.301 | 0.375 | 0.303 | 0.16 | 0.931 | 0.965 | 0.909 | 0.807 | 0.818 | 0.992 | 1.02 | 0.984 | 0.934 | 1.03 | 0.418 | 0.455 | 0.473 | 0.456 | 0.396 |
| NCI-H661 | 0.99 | 1.02 | 1 | 0.844 | 0.657 | 0.665 | 0.691 | 0.645 |  | 0.522 | 0.86 | 0.805 | 0.846 | 0.626 | 0.587 | 0.936 | 0.927 | 0.873 | 0.916 | 0.838 |
| LOU-NH91 | 0.348 | 0.348 | 0.285 | 0.259 | 0.27 | 0.648 | 0.72 | 0.729 | 0.388 | 0.797 | 0.501 | 0.451 | 0.538 | 0.444 | 0.556 | 0.319 | 0.409 | 0.392 | 0.435 | 0.371 |
| LXF-289 | 0.745 | 0.564 | 0.648 | 0.334 | 0.138 | 1.07 | 1.01 | 1.01 | 1.17 | 1.08 | 1.06 | 1.04 | 1.07 | 0.976 | 1 | 0.92 | 0.952 | 0.892 | 0.964 | 0.952 |
| HCC-44 | 1.15 | 1.01 | 0.733 | 0.604 | 0.453 | 0.796 | 0.854 | 0.887 | 0.752 | 0.592 | 0.899 | 0.92 | 0.897 | 0.804 | 0.966 | 0.573 | 0.536 | 0.67 | 0.727 | 0.631 |
